Assay results taken from publication PMC9232501, “Results of the phase I CCTG IND.231 trial of CX-5461 in patients with advanced solid tumors enriched for DNA-repair deficiencies” (Nature Communications, 2022).
Marks after values point to notes of the source that are not given here.

System: patients with advanced solid tumors
Assay: Phase I dose escalation: safety, tolerability, dose-limiting toxicity (CTCAE v4.0)
[1] = 325 mg/m^2 d1,8,15, N patients 4
[2] = 650 mg/m^2 d1,8,15, N patients 5
[3] = 40 treated patients, all dose levels
[4] = 475* mg/m^2 d1,8,15, N patients 6

Cc1cnc(CNC(=O)c2c(=O)c3ccc(N4CCCN(C)CC4)nc3n3c2sc2ccccc23)cn1 [CX-5461]
Diarrhea, any causality, all grades (patients) (50 mg/m^2 d1,8, N patients 4): 2 | Dry eye, any causality, all grades (patients) (50 mg/m^2 d1,8, N patients 4): 1 | Fatigue, any causality, all grades (patients) (50 mg/m^2 d1,8, N patients 4): 4 | Headache, any causality, all grades (patients) (50 mg/m^2 d1,8, N patients 4): 1 | Nausea, any causality, all grades (patients) (50 mg/m^2 d1,8, N patients 4): 3 | Palmar–plantar erythrodysesthesia syndrome, any causality, all grades (patients) (50 mg/m^2 d1,8, N patients 4): 1 | Phototoxicity, any causality, all grades (patients) (50 mg/m^2 d1,8, N patients 4): 2 | Phototoxicity, number in parentheses (undefined in table; fits grade 3–4 count) (50 mg/m^2 d1,8, N patients 4): 1 | Diarrhea, any causality, all grades (patients) (100 mg/m^2 d1,8, N patients 4): 1 | Dry eye, any causality, all grades (patients) (100 mg/m^2 d1,8, N patients 4): 1 | Eye phototoxicity, any causality, all grades (patients) (100 mg/m^2 d1,8, N patients 4): 1 | Fatigue, any causality, all grades (patients) (100 mg/m^2 d1,8, N patients 4): 3 | Headache, any causality, all grades (patients) (100 mg/m^2 d1,8, N patients 4): 3 | Mucositis oral, any causality, all grades (patients) (100 mg/m^2 d1,8, N patients 4): 2 | Nausea, any causality, all grades (patients) (100 mg/m^2 d1,8, N patients 4): 3 | Palmar–plantar erythrodysesthesia syndrome, any causality, all grades (patients) (100 mg/m^2 d1,8, N patients 4): 1 | Phototoxicity, any causality, all grades (patients) (100 mg/m^2 d1,8, N patients 4): 1 | Diarrhea, any causality, all grades (patients) (150 mg/m^2 d1,8, N patients 4): 1 | Dry eye, any causality, all grades (patients) (150 mg/m^2 d1,8, N patients 4): 2 | Fatigue, any causality, all grades (patients) (150 mg/m^2 d1,8, N patients 4): 3 | Headache, any causality, all grades (patients) (150 mg/m^2 d1,8, N patients 4): 2 | Mucositis oral, any causality, all grades (patients) (150 mg/m^2 d1,8, N patients 4): 1 | Nausea, any causality, all grades (patients) (150 mg/m^2 d1,8, N patients 4): 4 | Palmar–plantar erythrodysesthesia syndrome, any causality, all grades (patients) (150 mg/m^2 d1,8, N patients 4): 1 | Phototoxicity, any causality, all grades (patients) (150 mg/m^2 d1,8, N patients 4): 1 | ALT, Grade 3 or 4 (patients) (150 mg/m^2 d1,8, N pts 4): 2 | AST, Grade 3 or 4 (patients) (150 mg/m^2 d1,8, N pts 4): 2 | Alkaline phosphatase, Grade 3 or 4 (patients) (150 mg/m^2 d1,8, N pts 4): 1 | Bilirubin, Grade 3 or 4 (patients) (150 mg/m^2 d1,8, N pts 4): 1 | Neutropenia, Grade 3 or 4 (patients) (150 mg/m^2 d1,8, N pts 4): 1 | Thrombocytopenia, Grade 3 or 4 (patients) (150 mg/m^2 d1,8, N pts 4): 1 | Diarrhea, any causality, all grades (patients) (200 mg/m^2 d1,8, N patients 4): 2 | Dry eye, any causality, all grades (patients) (200 mg/m^2 d1,8, N patients 4): 1 | Fatigue, any causality, all grades (patients) (200 mg/m^2 d1,8, N patients 4): 2 | Nausea, any causality, all grades (patients) (200 mg/m^2 d1,8, N patients 4): 3 | Phototoxicity, any causality, all grades (patients) (200 mg/m^2 d1,8, N patients 4): 2 | ALT, Grade 3 or 4 (patients) (200 mg/m^2 d1,8, N pts 4): 1 | AST, Grade 3 or 4 (patients) (200 mg/m^2 d1,8, N pts 4): 1 | Anemia, Grade 3 or 4 (patients) (200 mg/m^2 d1,8, N pts 4): 1 | Fatigue, any causality, all grades (patients) (250 mg/m^2 d1,8, N patients 3): 2 | Headache, any causality, all grades (patients) (250 mg/m^2 d1,8, N patients 3): 1 | Mucositis oral, any causality, all grades (patients) (250 mg/m^2 d1,8, N patients 3): 1 | Nausea, any causality, all grades (patients) (250 mg/m^2 d1,8, N patients 3): 2 | Palmar–plantar erythrodysesthesia syndrome, any causality, all grades (patients) (250 mg/m^2 d1,8, N patients 3): 2 | Phototoxicity, any causality, all grades (patients) (250 mg/m^2 d1,8, N patients 3): 3 | Phototoxicity, number in parentheses (undefined in table; fits grade 3–4 count) (250 mg/m^2 d1,8, N patients 3): 1 | Dry eye, any causality, all grades (patients) [1]: 1 | Eye phototoxicity, any causality, all grades (patients) [1]: 1 | Fatigue, any causality, all grades (patients) [1]: 2 | Nausea, any causality, all grades (patients) [1]: 1 | Palmar–plantar erythrodysesthesia syndrome, any causality, all grades (patients) [1]: 1 | Phototoxicity, any causality, all grades (patients) [1]: 4 | Phototoxicity, number in parentheses (undefined in table; fits grade 3–4 count) [1]: 1 | AST, Grade 3 or 4 (patients) (325 mg/m^2 d1,8,15, N pts 4): 1 | Neutropenia, Grade 3 or 4 (patients) (325 mg/m^2 d1,8,15, N pts 4): 1 | Diarrhea, any causality, all grades (patients) (325 mg/m^2 d1,8, N patients 3): 1 | Fatigue, any causality, all grades (patients) (325 mg/m^2 d1,8, N patients 3): 3 | Fatigue, number in parentheses (undefined in table; fits grade 3–4 count) (325 mg/m^2 d1,8, N patients 3): 1 | Nausea, any causality, all grades (patients) (325 mg/m^2 d1,8, N patients 3): 2 | Nausea, number in parentheses (undefined in table; fits grade 3–4 count) (325 mg/m^2 d1,8, N patients 3): 1 | Palmar–plantar erythrodysesthesia syndrome, any causality, all grades (patients) (325 mg/m^2 d1,8, N patients 3): 1 | Phototoxicity, any causality, all grades (patients) (325 mg/m^2 d1,8, N patients 3): 1 | Eye phototoxicity, any causality, all grades (patients) (475 mg/m^2 d1,8, N patients 3): 1 | Fatigue, any causality, all grades (patients) (475 mg/m^2 d1,8, N patients 3): 2 | Mucositis oral, any causality, all grades (patients) (475 mg/m^2 d1,8, N patients 3): 1 | Nausea, any causality, all grades (patients) (475 mg/m^2 d1,8, N patients 3): 1 | Palmar–plantar erythrodysesthesia syndrome, any causality, all grades (patients) (475 mg/m^2 d1,8, N patients 3): 1 | Phototoxicity, any causality, all grades (patients) (475 mg/m^2 d1,8, N patients 3): 3 | Diarrhea, any causality, all grades (patients) [2]: 1 | Dry eye, any causality, all grades (patients) [2]: 1 | Eye phototoxicity, any causality, all grades (patients) [2]: 3 | Fatigue, any causality, all grades (patients) [2]: 3 | Fatigue, number in parentheses (undefined in table; fits grade 3–4 count) [2]: 1 | Headache, any causality, all grades (patients) [2]: 1 | Mucositis oral, any causality, all grades (patients) [2]: 2 | Nausea, any causality, all grades (patients) [2]: 3 | Palmar–plantar erythrodysesthesia syndrome, any causality, all grades (patients) [2]: 1 (1) | Palmar–plantar erythrodysesthesia syndrome, number in parentheses (undefined in table; fits grade 3–4 count) [2]: 1 (1) | Phototoxicity, any causality, all grades (patients) [2]: 3 | Phototoxicity, number in parentheses (undefined in table; fits grade 3–4 count) [2]: 1 | Alkaline phosphatase, Grade 3 or 4 (patients) (650 mg/m^2 d1,8,15, N pts 5): 1 | Neutropenia, Grade 3 or 4 (patients) (650 mg/m^2 d1,8,15, N pts 5): 2 | toxicity to ionizing radiation (13 patients who received radiotherapy during or following treatment): no excess toxicity to ionizing radiation | Treatment-related Dry eye, Grade 3–4, % (40 treated patients): 0% | Treatment-related Dry eye, Total, % (40 treated patients): 10% | Treatment-related Eye phototoxicity, Grade 1–2, % (40 treated patients): 20% | Treatment-related Eye phototoxicity, Grade 3–4, % (40 treated patients): 0% | Treatment-related Eye phototoxicity, Total, % (40 treated patients): 20% | Treatment-related Headache, Grade 1–2, % (40 treated patients): 12.5% | Treatment-related Headache, Grade 3–4, % (40 treated patients): 0% | Treatment-related Headache, Total, % (40 treated patients): 12.5% | Treatment-related Mucositis oral, Grade 1–2, % (40 treated patients): 15% | Treatment-related Mucositis oral, Grade 3–4, % (40 treated patients): 0% | Treatment-related Mucositis oral, Total, % (40 treated patients): 15% | Treatment-related Nausea, Grade 1–2, % (40 treated patients): 42.5% | Treatment-related Nausea, Grade 3–4, % (40 treated patients): 2.5% | Treatment-related Nausea, Total, % (40 treated patients): 45% | Treatment-related Palmar–plantar erythrodysesthesia, Grade 1–2, % (40 treated patients): 20% | Treatment-related Palmar–plantar erythrodysesthesia, Grade 3–4, % (40 treated patients): 2.5% | Treatment-related Palmar–plantar erythrodysesthesia, Total, % (40 treated patients): 22.5% | Treatment-related Phototoxicity (skin), Grade 3–4, % (40 treated patients): 15% | Treatment-related Phototoxicity (skin), Total, % (40 treated patients): 60% | grade 3 or 4 related AE: nausea [3]: 2.5% | grade 3 or 4 related AE: palmar–plantar erythrodysesthesia syndrome [3]: 2.5% | grade 3 or 4 related AE: skin phototoxicity [3]: 15% | Diarrhea, any causality, all grades (patients) [4]: 1 | Eye phototoxicity, any causality, all grades (patients) [4]: 2 | Fatigue, any causality, all grades (patients) [4]: 5 | Fatigue, number in parentheses (undefined in table; fits grade 3–4 count) [4]: 2 | Headache, any causality, all grades (patients) [4]: 2 | Nausea, any causality, all grades (patients) [4]: 6 | Palmar–plantar erythrodysesthesia syndrome, any causality, all grades (patients) [4]: 1 | Phototoxicity, any causality, all grades (patients) [4]: 4 | Phototoxicity, number in parentheses (undefined in table; fits grade 3–4 count) [4]: 2 | Anemia, Grade 3 or 4 (patients) (475* mg/m^2 d1,8,15, N pts 6): 2 | Dose-limiting toxicities (number) (Dose level 9, 650 mg/m^2/dose, Day 1, 8 & 15 Q4 weeks, 5 enrolled, one occurred after cycle 1): 2 ** | maximal administered dose (MAD) (d1, 8, 15 (DL9)): 650 mg/m^2 | recommended phase II dose (RP2D) (days 1, 8 and 15 every 4 weeks, 60-minute intravenous infusion): 475 mg/m^2 | SAEs considered related to CX-5461 (grade 3 phototoxicity (DL0), grade 2 eye phototoxicity (DL8), grade 3 phototoxicity (DL8)): 3 | serious AEs (SAEs) reported (in 13 patients): Sixteen | dose-limiting toxicity (kind) (in vivo): phototoxicity | participants with dose omission because of phototoxicity (in vivo): six | participants with dose reductions because of phototoxicity (in vivo): two | patients discontinuing therapy because of phototoxicity (in vivo): one
